# Results as given in patent EP4631969A1, “PEPTIDE FOR CARTILAGE REGENERATION, AND USES THEREOF” (Caregen Co., Ltd., priority 2022, dated 2024).
# Where no end group is shown, it is not given here.
# System: Human Adipose-Derived Mesenchymal Stem Cells (AD-MSC)
# Assay: Confirmation of cytotoxicity (CCK-8 activity test and SRB staining)
# Type: cell-based
# Conditions: about 1 to 200 µg/ml, 7 days of culture; for cytotoxicity: CCK-8; for change in cell morphology: SRB staining, microscope
# Protocol: Human Adipose-Derived Mesenchymal Stem Cells (AD-MSC) were treated with Peptide-1 or Peptide-2 to determine whether they were cytotoxic.
# Specifically, AD-MSCs were seeded in 96-well plates at a concentration of about 1.5 x 10^3 cells/well and cultured in DMEM medium (about 10 % FBS + DMEM medium) for about 24 hours. […] After 7 days of culture, about 1/10 of the culture medium was treated with a CCK-8 (Dojindo, CCK-8 kit) solution and cultured for about 2 hours. After incubation, the culture medium was sampled and the absorbance was measured at a wavelength of about 450 nm using a microplate reader. After measuring the absorbance, the medium in the culture medium in the 96-well plate was removed, and about 60 µl of 3.7 % formalin was added to the 96-well plate to fix the cells for about 1 minute. After cell fixation, the formalin was removed, and about 70 ul of SRB staining solution (about 0.2 g of Sulforhodamine B sodium salt (sigma, S9012) dissolved in about 100 ml of double-distilled water) was added to the fixed cells, and the cells were stained by culturing overnight at room temperature in a lightblocking condition. After cell staining, the cells were washed with about 1 % acetic acid and dried. The dried cells were observed under a microscope. As control groups, an experimental group (CON) that was not treated with the above peptide and an experimental group (CM) treated with a solution containing about 100 nM dexamethasone, about 50 µM ascorbic acid, about 40 µM proline, about 10 ng/ml TGFβ1, and 1X ITS instead of the above peptide were used.
Substance,cytotoxicity,change in cell morphology
"HHEQF [Peptide-2, HHEQF]",no cytotoxicity was caused,no change in cell morphology occurred at all concentrations
"STGALSTSFTEE [Peptide-1, STGALSTSFTEE]",no cytotoxicity was caused,no change in cell morphology occurred at all concentrations
